Patent publication US6277886A (priority 1996, dated 2001)
Structures can show the parent of a compound that is named as a salt. Where two headings read alike, the source gives them in different places.

Experiments:
ICR male mice = experiment: Hypobaric hypoxia model, survival time of mice at 200 mmHg; assay type: in vivo; details: control = 100
Excerpt: The model used is analogous to the one described by M. Nakanishi et al., Life Sci. 13: 467-476 (1973); and by Y'Oshiro et al., J. Med. Chem. 34: 2014-2023 (1991). A group of 4 ICR male mice each weighing 20-25 g were placed in a 2.5 L glass chamber (A) at atmospheric pressure. Chamber A is connected to a 12 L chamber (B) through a valve which is initially […] closed. The air in chamber B was evacuated to a pressure of 100 mmHg. The valve between the two chambers was opened rapidly, whereupon the pressure in chamber A fell within 14 seconds to 200 mmHg. The survival time of the mice in chamber A was determined to a maximum hypobaric exposure of 15 minutes. Effect of drug pretreatment on survival is calculated as the percent of the survivai time of the drug-treated group as compared to saline-injected or vehicle-injected group. Control groups were tested twice, before and after each experiment and consisted of 12 to 16 mice, 4 per group. Each tested group always consisted of 4 mice in order to ensure a constant residual volume of oxygen in all tests. […] The effect of each dose of the test drug was determined in duplicate, using a total of 8 mice, 4 per group. All drugs were administered i.p. one hour prior to hypoxia. Positive reference drugs were sodium pentobarbital at a dose of 40 mg/kg, or diazepam at a dose of 10 mg.kg, given 0.5 hour prior to hypoxia.

MAO-A = MAO-A (Rattus norvegicus, UniProt P21396); experiment: in vivo; details: for ED50: rat, read-out: IC-50 for Inhibition of MAO-A
Sequence of MAO-A (P21396 whole entry): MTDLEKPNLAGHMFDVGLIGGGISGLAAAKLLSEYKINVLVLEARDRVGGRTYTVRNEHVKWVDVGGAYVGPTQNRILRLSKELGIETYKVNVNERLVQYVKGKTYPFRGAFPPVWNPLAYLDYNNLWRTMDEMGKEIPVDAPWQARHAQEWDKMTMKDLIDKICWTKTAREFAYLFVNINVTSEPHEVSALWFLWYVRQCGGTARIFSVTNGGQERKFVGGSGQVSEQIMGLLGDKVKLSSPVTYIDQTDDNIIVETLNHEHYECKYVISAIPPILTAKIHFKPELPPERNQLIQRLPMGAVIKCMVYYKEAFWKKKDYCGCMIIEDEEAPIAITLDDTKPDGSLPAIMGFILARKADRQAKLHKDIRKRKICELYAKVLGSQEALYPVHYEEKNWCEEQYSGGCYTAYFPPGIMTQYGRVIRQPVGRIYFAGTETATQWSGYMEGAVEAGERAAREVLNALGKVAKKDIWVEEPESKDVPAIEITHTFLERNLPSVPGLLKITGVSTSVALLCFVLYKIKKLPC
Protocol: (§1) Rats (male Sprague-Dawley-derived) weighing 250±20 g were treated with one of the enantionmers or the racemic form of PAI by intraperitoneal injection (ip) or oral gavage (po), and decapitated 1h or 2h later respectively. Groups of three rates were used for each dose level of substance, and MAO activity determined in brain and liver using the general technique described in Example 19 of U.S. Pat. No. 5,387,612. The amount of protein in each incubation was determined using the Follin-Lowrymethod, and enzyme activity calculated as nmol of substrate metabolized per hour of incubation for each mg of protein. Activity of MAO in tissues from animals treated with the enantiomers or the racemic form of PAI was expressed as a percentage of the enzyme activity in a group of control animals administered vehicle (water for oral administration, 0.9% saline for ip injection).

MAO-B [1] = molecular target: MAO-B (Rattus norvegicus, UniProt P19643); experiment: in vivo; details: for activity for inhibition of MAO-B: in words; for ED50: rat
Sequence of MAO-B (Rattus norvegicus, UniProt P19643) (P19643 whole entry): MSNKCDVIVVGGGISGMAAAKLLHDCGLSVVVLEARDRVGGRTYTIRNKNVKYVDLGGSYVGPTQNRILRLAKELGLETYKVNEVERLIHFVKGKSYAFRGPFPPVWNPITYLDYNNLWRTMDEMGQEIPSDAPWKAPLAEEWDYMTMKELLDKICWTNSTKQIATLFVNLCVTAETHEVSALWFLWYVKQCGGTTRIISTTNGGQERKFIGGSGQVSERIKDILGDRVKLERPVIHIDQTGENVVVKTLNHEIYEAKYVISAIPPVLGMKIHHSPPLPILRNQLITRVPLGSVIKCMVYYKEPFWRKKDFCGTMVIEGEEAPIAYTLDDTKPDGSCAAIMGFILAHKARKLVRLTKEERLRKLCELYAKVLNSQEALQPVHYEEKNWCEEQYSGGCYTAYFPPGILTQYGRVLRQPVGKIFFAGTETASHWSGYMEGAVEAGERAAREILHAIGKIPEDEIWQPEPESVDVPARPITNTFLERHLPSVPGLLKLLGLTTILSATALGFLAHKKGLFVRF
Protocol: as §1

rat cerebellum cells = details: in words; cited from earlier work
MAO-B [2] = details: in vitro; cited from earlier work
MAO-A/MAO-B = details: in vitro; cited from earlier work
[3] = tested on: male Wistar rats after middle cerebral artery occlusion (MCA-O)
Excerpt: In order to expose the left middle cerebral artery, a cut was made in the temporal muscle. The tip of the coronoid process of mandible was excised as well and removed with a fine rongeur. Craniectomy was made with a dental drill at the junction between the median wall and the roof of the inferotemporal fossa.
The dura matter was opened carefully using a 27 gauge needle. […] Following this, the temporalis muscle was sutured and laid over the craniectomy site. The skin was closed with a running 3-0 silk suture. […] The volume of brain tissue incurring damage following ischemia was determined.

rat optic nerve = details: in words; cited from earlier work
[4] = tested on: noradrenaline depletion in rodents; details: in words; cited from earlier work
human subjects = details: cited from earlier work
[5] = tested on: reserpine induced ptosis in rats; experiment: Reserpine-induced ptosis in rats; assay type: in vivo; details: reserpine 5 mg/kg i.p., 0-4 scale, 4 = eyes completely open, saline 0.86
Excerpt: Reserpine-induced ptosis and its reversal test. Reserpine causes depletion of catecholamine stores, especially norepinephrine. This effect in the live animal is manifested among other things, in ptosis. Drugs that can prevent or inhibit reserpine-induced ptosis act either directly as noradrenergic agonists, or indirectly by decreasing or preventing the metabolic elimination of endogenous norepinephrine. MAO inhibitors belong to the latter category.

nerve cell death = details: sub-inhibitory levels; in words; cited from earlier work
noradrenaline uptake = details: in words; cited from earlier work
[6] = tested on: pressor response to catecholamines in the cat; experiment: Pressor response to catecholamines in the anesthetized cat before and after S(-)PAI; assay type: in vivo; details: before S(-)PAI
Protocol: Cats were anesthetized with i.v. nembutal 25 mg/kg. Anesthesia was maintained by additional injections of nembutal, 5 mg/kg, as needed. The femoral artery was cannulated and connected to a Statham pressure transducer for blood pressure recordings on a Grass multichannel Polygraph. The femoral vein was cannulated for i.v. injection of drugs.

[7] = po liver, 2 h after oral gavage
[8] = 10 mg/kg i.p., one hour prior to hypoxia
[9] = 50 mg/kg i.p., one hour prior to hypoxia
[10] = 100 mg/kg i.p., one hour prior to hypoxia

For CN1C(=O)CN=C(c2ccccc2)c2cc(Cl)ccc21 [Diazepam], which “% protection ± SD relative to control (relative survival time)” value (from here on “% protection ± SD relative to control”) (ICR male mice; 10 mg/kg i.p., 0.5 hour prior to hypoxia) is on record?
The value was 430 ± 59%.

For CCCC(C)C1(CC)C(=O)NC(=O)NC1=O (stereo not shown) [Pentobarbital], which “% protection ± SD relative to control” value (ICR male mice; 20 mg/kg i.p., 0.5 hour prior to hypoxia) is on record?
The value was 325 ± 166%.

For C#CCN[C@@H]1CCc2ccccc21 [R(+)PAI mesylate, reference compound], which “IC-50 for Inhibition of MAO-A” value (MAO-A; [7]) is on record?
Its value is over 5 mg/kg.

And the ED50 (MAO-A; po, 2 h)?
The ED50 was over 5 mg/kg.

What about the “activity for inhibition of MAO-B” value (MAO-B [1]) of the same compound?
The value was “selectivity”.

And the “% protection ± SD relative to control” value (ICR male mice; [8])?
Its value is 116 ± 47%.

What about the “% protection ± SD relative to control” value (ICR male mice; [9]) of the same compound?
The value was 410 ± 151%.

What about the “% protection ± SD relative to control” value (ICR male mice; [10]) of the same compound?
The value was 358 ± 179%.

What does the source list for C#CCN[C@@H]1CCc2ccccc21 [R(+)PAI, R(+) enantiomer of N-propargyl-1-aminoindan]?
prevention of NMDA induced cell death (rat cerebellum cells): active as a "neuroprotective agent"; activity as inhibitor of MAO-B relative to S(-)PAI (MAO-B [2]): ~7,000 times more active; selectivity for MAO-B than MAO-A (MAO-A/MAO-B): more than 29 times more selective; improvement in neurological score severity [3]: ~20%; slowing neuronal degeneration after crushing the rat optic nerve (rat optic nerve): slowing neuronal degeneration

Which “neuroprotective activity (percent restoration of noradrenaline after DSP-4)” value [4] does the source give for C#CCN(C)[C@H](C)Cc1ccccc1 [R(-)Deprenyl] here?
The value was “displayed "neuroprotective activity"”.

What about the “dose at which cardiovascular function could be compromised” value (human subjects; human subjects, daily dose, recommended dose 10 mg) of the same compound?
The value was 30 to 40 mg.

What about the “safety factor in clinical practice” value (human subjects; human) of the same compound?
The value was 3 to 4.

What about the “Mean score of reserpine-induced ptosis” value ([5]; 5 mg/kg i.p.) of the same compound?
The value was 1.3.

What about the “Mean score of reserpine-induced ptosis” value ([5]; 10 mg/kg i.p.) of the same compound?
Its value is 3.16.

What about the “prevention of nerve cell death” value (nerve cell death) of the same compound?
The value was “prevent nerve cell death”.

For C#CCN(C)[C@@H](C)Cc1ccccc1 [S(+) deprenyl], which “neuroprotective activity (percent restoration of noradrenaline after DSP-4)” value [4] is on record?
Its value is “far lower "neuroprotective activity" in comparison with R(-) deprenyl”.

And the “noradrenaline uptake inhibition compared to R(-) deprenyl” value (noradrenaline uptake)?
Its value is “superior noradrenaline uptake inhibitor as compared to R(-) deprenyl”.

For C#CCN[C@H]1CCc2ccccc21 [S(-)PAI mesylate, S-(-)-N-Propargyl-1-aminoindan mesylate], which “activity for inhibition of MAO-A” value (MAO-A; in words) is on record?
The value was “extremely low activity”.

What about the “IC-50 for Inhibition of MAO-A” value (MAO-A; ip liver, 1 h after ip injection) of the same compound?
The value was over 10 mg/kg.

And the “IC-50 for Inhibition of MAO-A” value (MAO-A; [7])?
Its value is over 10 mg/kg.

And the ED50 (MAO-A; ip, 1 h)?
Its ED50 is over 10 mg/kg.

And the ED50 (MAO-A; po, 2 h)?
Its ED50 is over 10 mg/kg.

What about the “activity for inhibition of MAO-B” value (MAO-B [1]) of the same compound?
Its value is “extremely low activity”.

And the ED50 (MAO-B [1]; ip, 1 h, read-out: IC-50 for Inhibition of MAO-B, ip brain, 1 h after ip injection)?
Its ED50 is over 10 mg/kg.

What about the ED50 (MAO-B [1]; ip, 1 h, read-out: IC-50 for Inhibition of MAO-B, ip liver, 1 h after ip injection) of the same compound?
The ED50 was over 10 mg/kg.

And the ED50 (MAO-B [1]; po, 2 h, read-out: IC-50 for Inhibition of MAO-B, po brain, 2 h after oral gavage)?
Its ED50 is over 10 mg/kg.

What about the ED50 (MAO-B [1]; po, 2 h, read-out: IC-50 for Inhibition of MAO-B, po liver, 2 h after oral gavage) of the same compound?
The ED50 was over 10 mg/kg.

And the “% protection ± SD relative to control” value (ICR male mice; [8])?
The value was 84 ± 47%.

What about the “% protection ± SD relative to control” value (ICR male mice; [9]) of the same compound?
Its value is 406 ± 247%.

And the “% protection ± SD relative to control” value (ICR male mice; [10])?
The value was 390 ± 197%.

Which “Δ mean arterial pressure before S(-)PAI” value ([6]; 0.02 μg/kg i.v.) does the source give for NC[C@H](O)c1ccc(O)c(O)c1 [norepinephrine, reference compound] here?
The value was 8 mmHg.

And the “Δ mean arterial pressure before S(-)PAI” value ([6]; 0.05 μg/kg i.v.)?
Its value is 23 mmHg.

What about the “Δ mean arterial pressure before S(-)PAI” value ([6]; 0.10 μg/kg i.v.) of the same compound?
Its value is 31 mmHg.

And the “Δ mean arterial pressure before S(-)PAI” value ([6]; 0.20 μg/kg i.v.)?
The value was 46 mmHg.

Which results are given for CNC[C@H](O)c1cccc(O)c1 [phenylephrine, reference compound]?
Δ mean arterial pressure before S(-)PAI ([6]; 0.20 μg/kg i.v.): 9 mmHg; Δ mean arterial pressure before S(-)PAI ([6]; 0.50 μg/kg i.v.): 17 mmHg; Δ mean arterial pressure before S(-)PAI ([6]; 1.0 μg/kg i.v.): 21 mmHg; Δ mean arterial pressure before S(-)PAI ([6]; 2.0 μg/kg i.v.): 40 mmHg

For NCCc1ccc(O)cc1 [tyramine, reference compound], which “Δ mean arterial pressure before S(-)PAI” value ([6]; 2.0 μg/kg i.v.) is on record?
Its value is 11 mmHg.

And the “Δ mean arterial pressure before S(-)PAI” value ([6]; 5.0 μg/kg i.v.)?
Its value is 19 mmHg.

What about the “Δ mean arterial pressure before S(-)PAI” value ([6]; 10.0 μg/kg i.v.) of the same compound?
Its value is 26 mmHg.

What about the “Δ mean arterial pressure before S(-)PAI” value ([6]; 20.0 μg/kg i.v.) of the same compound?
The value was 42 mmHg.
